Paper PMC11062903, “Discovery of potent inhibitors of α-synuclein aggregation using structure-based iterative learning” (Nature Chemical Biology, 2024)
Entries after “also recorded” stand apart in the source; their conditions may differ. Read-outs that look alike come from different tables or passages of the source.

Tests used:
[1] = target: T1, αS aggregation (surface-catalyzed secondary nucleation) (Homo sapiens, UniProt P37840); assay: light seeded αS aggregation chemical kinetics assay (ThT), secondary nucleation; assay type: biochemical
T1 construct: made in house; host or cells: E. coli BL21 (DE3)
Experimental: Secondary nucleation is enabled by adding a small amount of preformed fibrils to a monomeric mixture. Aggregation was tracked using the amyloid binding dye, thioflavin T (ThT).
αS was injected into a Superdex 75 10/300 GL column (GE Healthcare) at a flow rate of 0.5 ml min^−1 and eluted in 20 mM sodium phosphate buffer (pH 4.8) supplemented with 1 mM EDTA. The obtained monomer was diluted in buffer to a desired concentration and supplemented with 50 µM ThT and preformed αS fibril seeds. The molecules (or DMSO alone) were then added at the desired concentration to a final DMSO concentration of 1% (v/v). […] The assay was then initiated by placing the microplate at 37 °C under quiescent conditions in a plate reader (FLUOstar Omega, BMG Labtech). The ThT fluorescence was measured through the bottom of the plate with a 440 nm excitation filter and a 480 nm emission filter.
In the presence of low concentrations of seeds (approximately nanomolar), the fibril mass fraction, M(t), over time was described using a generalized logistic function to the normalized aggregation data[9],[70] M(t)/mtot=1−1/1+a/ce^κt^c where mtot denotes the total concentration of αS monomers. The parameters a and c are defined as a=λ^2/2κ^2 c=2/n2(n2+1). […]

[2] = target: T2, αS fibrils (Homo sapiens, UniProt P37840); assay: SPR binding to immobilized αS fibrils; settings: 1:1 kinetic binding model; for kd / kon: error s.e.m.; for kon: read-out: ka
T2 construct: made in house; host or cells: E. coli BL21 (DE3)
Experimental: All work was carried out using Biacore T200 at 25 °C. CM5 chips were activated by flowing 0.01 M N-hydroxysuccinimide, 0.4 M […] at a flow rate of 10 µl min^−1 for 7 min over two lanes. Preformed αS or Aβ42 fibrils (derived from the endpoints of low seeded aggregation reactions) at a concentration of 1 µM in sodium acetate (10 mM, pH 4.0) were injected onto a single lane in 60 s bursts at 5 µl min^−1 until a response of 2,000 units was reached. […] Different small molecule concentrations were then flowed over both lanes in a pyramidal arrangement in duplicate with blank subtraction (association time 3 min, dissociation time 10 min). The running buffer was sodium phosphate (20 mM, 1 mM EDTA, variable pH) with 1% DMSO. Fitting was carried out on Biacore T200 Evaluation Software, version 3.2, using a 1:1 binding model with the refractive index set to a constant value of 0 response units.

[3] = target: T3, Aβ42 fibrils (Homo sapiens, UniProt P05067); assay: SPR binding to immobilized Aβ42 fibrils; settings: pH 8
T3 construct: The recombinant Aβ42 peptide ([…] […] […] […] IA), here called Aβ42; made in house; host or cells: Escherichia coli BL21 Gold (DE3)
T3 sequence (P05067 671-713): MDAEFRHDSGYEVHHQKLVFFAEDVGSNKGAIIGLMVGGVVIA
Experimental: (§1) Solutions of monomeric Aβ42 were prepared by dissolving the lyophilized Aβ42 peptide in 6 M guanidinium hydrocholoride (GuHCl). Monomeric forms were purified from potential oligomeric species and salt using a Superdex 75 10/300 GL column (GE Healthcare) at a flow rate of 0.5 ml min^−1, and were eluted in 20 mM sodium phosphate buffer, pH 8 supplemented with 200 µM EDTA and 0.02% NaN3. The center of the peak was collected and the peptide concentration was determined from the absorbance of the integrated peak area using ε280 = 1,490 l mol^−1 cm^−1. The obtained monomer was diluted with buffer to the desired concentration and supplemented with 20 μM ThT from a 2 mM stock. Each sample was then pipetted into multiple wells of a 96-well half-area, low-binding, clear-bottom and polyethylene glycol-coated plate (Corning 3881), 80 µl per well, in the absence and the presence of different molar-equivalents of small molecules (1% DMSO). Assays were initiated by placing the 96-well plate at 37 °C under quiescent conditions in a plate reader (Fluostar Omega, Fluostar Optima or Fluostar Galaxy, BMGLabtech). The ThT fluorescence was measured through the bottom of the plate using a 440 nm excitation filter and a 480 nm emission filter. Fibrils were extracted directly from wells and used on the day for SPR experiments.
All work was carried out using Biacore T200 at 25 °C. […]

[4] = target: T4, Aβ42 secondary nucleation (Homo sapiens, UniProt P05067); assay: seeded Aβ42 aggregation kinetics (ThT); assay type: biochemical; settings: 2 μM Aβ42, 40 nM seed, pH 8
T4 construct: The recombinant Aβ42 peptide ([…] […] […] […] IA), here called Aβ42; made in house; host or cells: Escherichia coli BL21 Gold (DE3)
T4 sequence (P05067 671-713): as above
Experimental: as §1

[5] = target: T1, αS aggregation (surface-catalyzed secondary nucleation); set-up: method as in PMID 36374974; settings: cited from earlier work

O=C1NN(c2ccc(F)cc2)C(=O)/C1=C/c1ccc(-c2ccc(Cl)c(C(=O)O)c2)o1 [I4.05]
IC50 ([1]; 1/t1/2 fitted to a Hill slope, 10 µM αS, 25 nM seeds, pH 4.8, 37 °C, read-out: KIC50 (concentration at which t1/2 is increased by 50% with respect to the control)): 520 nM | Kd ([2]; pH 4.8): 68 nM | kd ([2]; pH 4.8): 1.315 ± 0.003 × 10^−2 s^−1 | kon ([2]; pH 4.8): 194000 ± 7e+07 M⁻¹ s⁻¹ | Kd ([2]; pH 8): 13 nM | kd ([2]; pH 8): 0.781 ± 0.002 × 10^−2 s^−1 | kon ([2]; pH 8): 588000 ± 2.4e+08 M⁻¹ s⁻¹ | binding to Aβ42 fibrils [3]: unable to effectively inhibit Aβ42 secondary nucleation or bind to Aβ42 fibrils; also recorded: nor does it bind effectively to Aβ42 fibrils | effect on seeded aggregation of Aβ42 [4]: unable to effectively inhibit Aβ42 secondary nucleation; also recorded: no effect

Cc1c(OCc2nnn[nH]2)ccc2c1oc(=O)c1ccccc12 [molecule 48]
activity in aggregation assays (docking set) [5]: active

O=C1NN(c2ccccc2)C(=O)C1=Cc1coc2ccccc2c1=O [molecule 69]
IC50 ([1]; extrapolated from Hill fit of 1/t1/2, read-out: extrapolated KIC50): 18200 nM | activity in aggregation assays (docking set) [5]: active
